± gives the standard deviation of the averaged measurements.
Columns and labels:
S1507-2 [1] = assay: drug sensitivity score (DSS, CellTox-Green cytotoxicity, 72 h) (DSS (dimensionless)); higher = more cytotoxic; extreme values may be limits of the assay
How it was run: (§1)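 MPNST cell lines and primary human Schwann cells were incubated 72 h at 37 °C in 384-well plates holding five 10-fold compound dilutions. CellTox-Green was added before seeding at a final 1:1000 dilution and reported fluorescence from DNA released by disrupted cells. Signals were scaled to vehicle and positive-control wells, and cultures failing plate quality control were dropped. Drug sensitivity score and relative IC50 come from four-parameter logistic fits, with IC50 censored at the top concentration.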

[2] = tested on: HSC2 (primary human Schwann cells); assay: as above
How it was run: as §1

[3] = tested on: HSC1 (primary human Schwann cells); assay: as above
How it was run: as §1

STS26T [4] = assay: as above
How it was run: as §1

HS-PSS [5] = assay: as above
How it was run: as §1

ST8814 [6] = assay: as above
How it was run: as §1

S1507-2 [7] = assay: drug sensitivity score (DSS, CellTiter-Glo viability, 72 h) (DSS (dimensionless)); higher = more sensitive; extreme values may be limits of the assay
How it was run: (§2)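 MPNST cell lines and primary human Schwann cells (750–1000 cells per well) went into 384-well plates preprinted with each compound at five concentrations in 10-fold steps. Plates were incubated 72 h at 37 °C, 5% CO2. Viability was read as CellTiter-Glo ATP luminescence, scaled between vehicle and positive-control wells, with duplicates averaged where present. Percent inhibition is at the top concentration; drug sensitivity score and relative IC50 (censored at top concentration) come from four-parameter logistic fits.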

[8] = tested on: HSC2 (primary human Schwann cells); assay: as above
How it was run: as §2

[9] = tested on: HSC1 (primary human Schwann cells); assay: as above
How it was run: as §2

STS26T [10] = assay: as above
How it was run: as §2

S462 [11] = assay: as above
How it was run: as §2

HS-PSS [12] = assay: as above
How it was run: as §2

ST8814 [13] = assay: as above
How it was run: as §2

YST-1 [14] = assay: as above
How it was run: as §2

HS-Sch-2 [15] = assay: as above
How it was run: as §2

S1507-2 [16] = assay: % inhibition of CellTiter-Glo viability at highest tested concentration (72 h), relative to DMSO and benzethonium chloride controls; higher = more inhibition
How it was run: as §2

[17] = tested on: HSC2 (primary human Schwann cells); assay: as above
How it was run: as §2

[18] = tested on: HSC1 (primary human Schwann cells); assay: as above
How it was run: as §2

STS26T [19] = assay: as above
How it was run: as §2

S462 [20] = assay: as above
How it was run: as §2

HS-PSS [21] = assay: as above
How it was run: as §2

ST8814 [22] = assay: as above
How it was run: as §2

YST-1 [23] = assay: as above
How it was run: as §2

HS-Sch-2 [24] = assay: as above
How it was run: as §2

SMILES | drug sensitivity score (S1507-2 [1]) | drug sensitivity score [2] | drug sensitivity score [3] | drug sensitivity score (STS26T [4]) | drug sensitivity score (HS-PSS [5]) | drug sensitivity score (ST8814 [6]) | drug sensitivity score (S1507-2 [7]) | drug sensitivity score [8] | drug sensitivity score [9] | drug sensitivity score (STS26T [10]) | drug sensitivity score (S462 [11]) | drug sensitivity score (HS-PSS [12]) | drug sensitivity score (ST8814 [13]) | drug sensitivity score (YST-1 [14]) | drug sensitivity score (HS-Sch-2 [15]) | % inhibition (S1507-2 [16]) | % inhibition [17] | % inhibition [18] | % inhibition (STS26T [19]) | % inhibition (S462 [20]) | % inhibition (HS-PSS [21]) | % inhibition (ST8814 [22]) | % inhibition (YST-1 [23]) | % inhibition (HS-Sch-2 [24])
C[C@]12O[C@H](C[C@]1(O)CO)n1c3ccccc3c3c4c(c5c6ccccc6n2c5c31)CNC4=O [Lestaurtinib] (max concentration tested 1000 nM) | 1.52 ± 2.1 | 0.0333 | 0.556 | 0.547 | 0 | 1.63 | 9.04 ± 0.52 | 13.2 | 11.2 | 5.07 | 11.7 ± 0.16 | 5.63 | 6.44 | 3.41 | 7.66 | 76.7 ± 2.5% | 51.8% | 54.4% | 54.5% | 96.6 ± 1.5% | 45.7% | 62.3% | 26.8% | 68.4%
N#Cc1ccc(C(c2ccc(C#N)cc2)n2cncn2)cc1 [Letrozole] (max concentration tested 10000 nM) | 0 | 0 | 0 | 0 | 0 | 0 | 0 | 0 | 0 | 0 | 0 | 0 | 0 | 0 | 0.34 | -4.25 ± 4.2% | 3.35% | 1.16% | 3.15% | -4.84 ± 2.2% | 10.6% | -5.31% | 7.25% | 14.7%
c1ccc([C@H]2CN3CCSC3=N2)cc1 [Levamisole] (max concentration tested 10000 nM) | 0 | 0 | 0 | 0 | 0 | 0 | 0 | 0 | 0 | 0 | 0 | 0 | 0 | 0 | 0 | -5.81 ± 3.8% | 4.5% | -1.64% | 6.7% | 0.12 ± 8.6% | -6.64% | -0.0528% | 0.96% | -7.3%
Cc1ccc(F)c(NC(=O)Nc2ccc(-c3cccc4[nH]nc(N)c34)cc2)c1 [Linifanib] (max concentration tested 1000 nM) | 0 | 0 | 0 | 0 | 0 | 0 | 0.308 ± 0.44 | 0.0016 | 0 | 0 | 0.159 ± 0.18 | 0 | 0 | 0 | 0 | 10 ± 8.1% | 11.5% | -2.2% | 5.78% | 14.7 ± 3.3% | 9.61% | 10.9% | 6.46% | 1.61%
C[C@]1(O)C[C@@H](c2nc(-c3ccc4ccc(-c5ccccc5)nc4c3)c3c(N)nccn32)C1 [Linsitinib] (max concentration tested 10000 nM) | 0.228 ± 0.32 | 0 | 0 | 0 | 0 | 0 | 5.34 ± 1.7 | 0 | 5.89 | 0.527 | 5.33 ± 1.5 | 0 | 0 | 11.6 | 2.13 | 24.6 ± 0.99% | 11.7% | 27% | 13% | 30.7 ± 0.84% | -2.81% | 11.1% | 82.4% | 25.6%
Nc1nc(OCc2cc(Br)cs2)c2[nH]cnc2n1 [Lomeguatrib] (max concentration tested 10000 nM) | 0 | 0 | 0 | 0 | 0 | 0 | 0 | 0 | 0 | 0 | 0 | 0.77 | 0 | 0 | 0 | -7.24 ± 3.2% | -5.93% | -5.66% | -6.97% | -14 ± 0.99% | 15.1% | -0.939% | -1.6% | -6.3%
O=NN(CCCl)C(=O)NC1CCCCC1 [Lomustine] (max concentration tested 10000 nM) | 0 | 0 | 0 | 0 | 0 | 0 | 0 | 0 | 0 | 0 | 0 | 0 | 0 | 0 | 0 | -7.84 ± 0.87% | -3.35% | -0.952% | 0.864% | -9.57 ± 4% | -0.39% | -8.13% | 0.78% | -15%

From the supplement of paper PMC5579334
